Here are results for four compounds from patent publication US9296751B1, “Indolizino[3,2-c]quinoline derivatives, pharmaceutically acceptable salt thereof, preparation method thereof and pharmaceutical composition for treatment of cystic fibrosis containing the same as active ingredient” (INDUSTRY-ACADEMIC COOPERATION FOUNDATION, YONSEI UNIVERSITY, priority 2014, dated 2016).

Molecules are shown by their SMILES.

For data set [1], the system named is Adipose-derived stem cells (ASC) and melanoma cells (B16 melanoma cells). Briefly: Cytotoxicity by MTT assay. Format: cell-based. To be noted: at a high concentration of 100 μM, FIG. 3 and FIG. 4. As to the method: (§1) Adipose-derived stem cells (ASC) and melanoma cells (B16 melanoma cells) are cultured in high-glucose Dulbecco's modified Eagle's medium (DMEM) with 10% fetal bovine serum (FBS) introduced thereto. Each type of cells is cultured in an incubator under the conditions of 37° C. and 5% CO2.
(§2) Cell survivability and cytotoxicity are determined in a 96-well plate by MTT assay. Each type of cells is implanted into a 6-well plate in a number of 3×10^4/well (ASC) and 4×10^4/well and cultured for 24 hours. Then, media change into high-glucose DMEM is carried out for both ASC and B16 and cultured overnight. After starvation, the cells are treated with each of the compounds according to Examples at a different concentration (0.1, 1, 10, 50, 100 μM), and further incubated for 24 hours and 48 hours under the conditions of 37° C. and 5% CO2. Then, MTT solution (5 mg/ml in PBS) is added to each well in an amount corresponding to 1/20 of the media volume, and incubation is carried out at 37° C. for 2 hours so that the cells are colored. After that, the supernatant is removed and dimethyl sulfoxide is added to carry out discoloration. The solution is determined by using an enzyme-linked immunosorbent assay (ELISA) reader at a wavelength of 595 nm.

Data set [2] concerns Adipose-derived stem cells (ASC). As to the kind of experiment: Proliferation/viability MTT assay, adipose-derived stem cells. The data set is classed as cell-based. To be noted: 0.1-100 μM, 24 and 48 hours, FIG. 2. As to the method:
as §1, §2
(Tetrazolium assays rely on reduction of a dye to a coloured formazan, in cell work by metabolically active cells.)

The subject of data set [3] is Adipose-derived stem cells. As to the kind of experiment: Migration assay (mechanical wound, Incucyte zoom). Format: cell-based. As to conditions: 0.1, 1, 10, 50 μM, 24 and 48 hours; FIG. 5 and FIG. 6. As to the method: Adipose-derived stem cells are implanted into a 96-well plate in a number of 3×10^4/well and cultured for 24 hours. Then, media change into high-glucose DMEM is carried out and the cells are cultured overnight. After starvation, a mechanical wound is made and the cells are treated with each of the compounds according to Examples at a different concentration (0.1, 1, 10, 50 μM). Next, the cells are incubated for 24 hours and 48 hours under the conditions of 37° C. and 5% CO2. Then, the Incucyte zoom (Essen Bioscience, USA) is photographed from the time point of treatment with each compound at an interval of 1 hour to analyze the migration of ASC.

Data set [4] deals with T1, human cystic fibrosis conductance transmembrane regulator (CFTR) (Homo sapiens, UniProt P13569).
T1 construct: expressed in transfected cells; host or cells: FRT cells (Fischer rat thyroid epithelial cells)
T1 sequence (P13569 whole entry): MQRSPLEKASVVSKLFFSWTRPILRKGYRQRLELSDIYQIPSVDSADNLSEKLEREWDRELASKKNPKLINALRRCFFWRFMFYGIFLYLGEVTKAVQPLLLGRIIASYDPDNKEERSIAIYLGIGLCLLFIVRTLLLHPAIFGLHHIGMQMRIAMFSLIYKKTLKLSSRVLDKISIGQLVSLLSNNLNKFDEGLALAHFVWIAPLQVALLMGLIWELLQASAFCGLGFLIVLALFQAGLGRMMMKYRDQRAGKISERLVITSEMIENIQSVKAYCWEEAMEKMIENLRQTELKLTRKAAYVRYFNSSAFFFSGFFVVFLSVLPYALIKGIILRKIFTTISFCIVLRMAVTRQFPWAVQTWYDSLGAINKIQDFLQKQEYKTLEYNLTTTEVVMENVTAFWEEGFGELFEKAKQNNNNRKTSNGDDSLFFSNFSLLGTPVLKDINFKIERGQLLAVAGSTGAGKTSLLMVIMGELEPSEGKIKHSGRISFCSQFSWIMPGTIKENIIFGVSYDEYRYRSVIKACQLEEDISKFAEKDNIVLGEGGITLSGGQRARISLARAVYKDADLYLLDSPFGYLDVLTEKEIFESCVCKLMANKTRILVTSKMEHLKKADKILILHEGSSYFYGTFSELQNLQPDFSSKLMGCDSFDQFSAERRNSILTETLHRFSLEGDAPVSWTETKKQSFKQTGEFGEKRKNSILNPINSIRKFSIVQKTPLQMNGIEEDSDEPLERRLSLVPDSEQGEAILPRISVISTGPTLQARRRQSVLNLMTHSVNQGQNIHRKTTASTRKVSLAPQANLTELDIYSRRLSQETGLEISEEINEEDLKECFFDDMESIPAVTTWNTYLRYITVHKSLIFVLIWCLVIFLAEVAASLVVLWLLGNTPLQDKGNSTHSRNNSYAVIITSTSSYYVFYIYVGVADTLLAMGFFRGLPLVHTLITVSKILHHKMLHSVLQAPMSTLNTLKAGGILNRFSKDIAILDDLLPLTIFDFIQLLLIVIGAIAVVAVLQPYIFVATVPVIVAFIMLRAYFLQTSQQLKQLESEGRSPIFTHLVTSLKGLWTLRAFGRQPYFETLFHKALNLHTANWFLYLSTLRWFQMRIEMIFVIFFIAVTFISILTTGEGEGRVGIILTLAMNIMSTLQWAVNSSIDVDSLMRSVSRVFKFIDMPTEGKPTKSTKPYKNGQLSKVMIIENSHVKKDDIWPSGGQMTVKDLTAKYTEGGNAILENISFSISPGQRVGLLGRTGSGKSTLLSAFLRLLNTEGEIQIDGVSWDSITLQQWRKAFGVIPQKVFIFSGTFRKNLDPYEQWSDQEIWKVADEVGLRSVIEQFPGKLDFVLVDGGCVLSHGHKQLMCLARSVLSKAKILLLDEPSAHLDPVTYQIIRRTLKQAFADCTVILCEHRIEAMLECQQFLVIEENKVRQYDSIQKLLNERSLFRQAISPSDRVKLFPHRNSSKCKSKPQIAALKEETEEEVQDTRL
As to the kind of experiment: Effect upon CFTR chloride ion channel activity (YFP fluorescence quenching by iodide influx in FRT cells). Format: cell-based. To be noted: for Emax at 30 µM: FRT, 10 min, final concentration of 30 μM, reaction for 10 minutes, ratio based on the CFTR activity maximized by forskolin. The method, then:
FRT cells expressing […] specific to human cystic fibrosis conductance transmembrane regulator (CFTR) and iodide ions are cultured in the Coon's modified F-12 culture medium for 48 hours on a 96-well plate. Each well of the plate containing the cultured cells is washed three times with 200 μl of PBS buffer, and then 100 μl of PBS buffer is added to each well. The indolizino[3,2-c]quinoline derivative according to each Example is introduced to each well to a final concentration of 30 μM, followed by reaction for 10 minutes. After the completion of the reaction, the 96-well is mounted to a FLUOstar Omega microplate reader (BMG LABTECH) and 100 μl of NaI solution is added to each well. Then, YFP fluorescence reduced by the iodide ions introduced to the cells through CFTR is recorded at an interval of 0.4 seconds for 24 seconds in total, thereby evaluating the effect of each compound upon CFTR activity.
The effect of each indolizino[3,2-c]quinoline derivative upon CFTR chloride ion channel activity is calculated as an activity ratio based on the CFTR activity maximized by a well-known CFTR agonist, forskolin.

Take `Brc1ccc2cc3c4ccccc4nc(-c4cccc5ccccc45)c3n2c1` [Example 27, 9-Bromo-6-(4naphthalen-1-yl)indolizino[3,2-c]quinoline]: the melting point lay in the range of 212 to 212.7 °C. The cytotoxicity result in data set [1] is listed as “no toxicity”. For the same compound, in data set [2], the “proliferation of adipose-derived stem cells” value (shortened to “proliferation”) is reported as “highly effective”. Besides, in data set [3], the “migration ability of adipose-derived stem cells” value was “has migration ability”.
As to `Cc1cccn2c1cc1c3ccccc3nc(-c3ccco3)c12` [Example 23, 6-(Furan-2-yl)-11-methylindolizino[3,2-c]quinoline], the melting point lay within 112.4 to 113.2 °C. For the same compound, the “proliferation” value in data set [2] is given as “highly effective”.
The compound `c1ccc(-c2nc3ccccc3c3cc4ccccn4c23)nc1` [Example 14, 6-(Pyridin-2-yl)indolizino[3,2-c]quinoline] gave a melting point of 177.9 to 178.3 °C. Moreover, the “proliferation” value in data set [2] is “highly effective”. In data set [4] (30 μM, comment on Table 2), the “CFTR activity ratio, result in words” value is on record as “high activity ratio”. Besides, the maximal effect (Emax) at 30 µM in data set [4] was 82%.
In turn, `c1ccc2c(-c3nc4ccccc4c4cc5ccccn5c34)cccc2c1` [Example 12, 6-(Naphthalen-1-yl)indolizino[3,2-c]quinoline] returned a melting point of 205.6 to 206.3 °C. Further, the cytotoxicity entry in data set [1] was “no toxicity”. Moreover, the “proliferation” value in data set [2] is listed as “highly effective”. The Emax at 30 µM in data set [4] turned out to be 44%. Further, the “migration ability of adipose-derived stem cells” value in data set [3] is on record as “has migration ability”.

What is called melting point is the temperature, or range, at which the solid turns liquid. Usually Emax stands for the maximal effect, on the per cent scale that the assay sets.
